Biological target: Insulin-like growth factor 1 receptor (Homo sapiens, UniProt P08069)
Test: Inhibition of IGF-induced autophosphosphorylation of GST-tagged human IGF1R expressed in SF21 cells by time resolved-fluorescent assay

Sequence of Insulin-like growth factor 1 receptor (P08069 31-736 limits assumed): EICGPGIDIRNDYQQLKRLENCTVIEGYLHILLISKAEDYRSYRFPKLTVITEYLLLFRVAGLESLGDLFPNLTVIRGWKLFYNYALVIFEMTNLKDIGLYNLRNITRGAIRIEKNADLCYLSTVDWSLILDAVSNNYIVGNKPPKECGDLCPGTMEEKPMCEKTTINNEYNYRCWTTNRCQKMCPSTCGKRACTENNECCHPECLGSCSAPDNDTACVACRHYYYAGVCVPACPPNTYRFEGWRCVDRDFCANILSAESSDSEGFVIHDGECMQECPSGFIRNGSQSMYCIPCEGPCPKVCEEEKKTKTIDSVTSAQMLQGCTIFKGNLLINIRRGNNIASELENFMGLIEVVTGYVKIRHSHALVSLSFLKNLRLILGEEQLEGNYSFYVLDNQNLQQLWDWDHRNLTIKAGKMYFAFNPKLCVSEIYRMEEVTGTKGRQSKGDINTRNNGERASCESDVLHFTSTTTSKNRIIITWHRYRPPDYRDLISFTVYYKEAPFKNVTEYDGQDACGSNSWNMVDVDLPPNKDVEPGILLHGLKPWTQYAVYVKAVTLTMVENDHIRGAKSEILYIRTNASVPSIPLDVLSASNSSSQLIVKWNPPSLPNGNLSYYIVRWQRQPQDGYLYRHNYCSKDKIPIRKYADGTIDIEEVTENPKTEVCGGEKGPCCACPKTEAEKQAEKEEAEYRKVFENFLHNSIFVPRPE
Sequence of Insulin-like growth factor 1 receptor (P08069 741-1367 limits assumed): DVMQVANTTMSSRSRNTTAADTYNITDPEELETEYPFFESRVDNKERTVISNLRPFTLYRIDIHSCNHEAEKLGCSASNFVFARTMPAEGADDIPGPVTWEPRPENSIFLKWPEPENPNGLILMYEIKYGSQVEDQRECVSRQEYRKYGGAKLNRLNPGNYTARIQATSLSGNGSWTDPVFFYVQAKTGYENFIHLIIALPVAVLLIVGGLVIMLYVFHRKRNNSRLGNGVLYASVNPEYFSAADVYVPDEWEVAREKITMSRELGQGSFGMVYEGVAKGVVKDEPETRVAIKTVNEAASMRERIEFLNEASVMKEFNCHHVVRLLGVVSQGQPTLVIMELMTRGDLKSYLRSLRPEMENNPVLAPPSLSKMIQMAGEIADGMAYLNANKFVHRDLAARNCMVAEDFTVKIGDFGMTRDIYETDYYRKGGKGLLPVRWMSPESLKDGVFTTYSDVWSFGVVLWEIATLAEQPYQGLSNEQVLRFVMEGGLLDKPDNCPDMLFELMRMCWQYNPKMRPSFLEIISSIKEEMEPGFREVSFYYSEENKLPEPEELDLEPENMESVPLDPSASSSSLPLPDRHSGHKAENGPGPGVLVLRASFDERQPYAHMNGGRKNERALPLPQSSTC

| IC50 [µM] | Structure (SMILES) |
| --- | --- |
| > 100 | Cc1c(O)n(-c2ccc(S(=O)(=O)C(F)(F)F)cc2)c(=O)n1Cc1cnc[nH]1 [(S)-1-((1H-imidazol-4-yl)methyl)-5-methyl-3-(4-(trifluoromethylsulfonyl)phenyl)imidazolidine-2,4-dione] |
| > 100 | Cc1c(O)n(-c2ccc(S(=O)(=O)C(F)(F)F)cc2)c(=O)n1Cc1cncc2ccccc12 [(S)-1-(isoquinolin-4-ylmethyl)-5-methyl-3-(4-(trifluoromethylsulfonyl)phenyl)imidazolidine-2,4-dione] |
| > 100 | Cc1c(O)n(-c2ccc(S(=O)(=O)C(F)(F)F)cc2)c(=O)n1Cc1ccccc1 [(S)-1-benzyl-5-methyl-3-(4-(trifluoromethylsulfonyl)phenyl)imidazolidine-2,4-dione] |
| > 100 | Cc1c(O)n(-c2ccc(S(=O)(=O)C(F)(F)F)cc2)c(=O)n1Cc1cc[n+]([O-])cc1 [(S)-4-((5-methyl-2,4-dioxo-3-(4-(trifluoromethylsulfonyl)phenyl)imidazolidin-1-yl)methyl)pyridine 1-oxide] |
| > 100 | Cc1c(O)n(-c2ccc(S(=O)(=O)C(F)(F)F)cc2)c(=O)n1Cc1cc[n+]([O-])c2ccccc12 [(S)-4-((5-methyl-2,4-dioxo-3-(4-(trifluoromethylsulfonyl)phenyl)imidazolidin-1-yl)methyl)quinoline 1-oxide] |
| > 100 | Cc1c(O)n(-c2ccc(S(=O)(=O)C(F)(F)F)cc2)c(=O)n1CC1CCNCC1 [(S)-5-methyl-1-(piperidin-4-ylmethyl)-3-(4-(trifluoromethylsulfonyl)phenyl)imidazolidine-2,4-dione] |
| > 100 | Cc1c(O)n(-c2ccc(S(=O)(=O)C(F)(F)F)cc2)c(=O)n1Cc1ccccn1 [(S)-5-methyl-1-(pyridin-2-ylmethyl)-3-(4-(trifluoromethylsulfonyl)phenyl)imidazolidine-2,4-dione] |
| > 100 | Cc1c(O)n(-c2ccc(S(C)(=O)=O)cc2)c(=O)n1Cc1ccnc2ccccc12 [(S)-5-methyl-3-(4-(methylsulfonyl)phenyl)-1-(quinolin-4-ylmethyl)imidazolidine-2,4-dione] |

— BindingDB's records for doi:10.1016/j.bmcl.2011.03.003 (Sanofi-Aventis, 2011)
